Assay results: patent US20230172940A1, “METHODS OF EXTENDING LIFESPAN BY ADMINISTERING FERROPTOSIS INHIBITORS” (COLLABORATIVE MEDICINAL DEVELOPMENT, LLC, priority 2020, published 2023)
“And” between values parts separate entries of the source, which are not always exact repeats. Equal values may be shown once. Marks after values point to notes of the source that are not given here.

Tests used:
C. elegans strain TJ1060 [1] = test: Lifespan determination; assay type: in vivo, Caenorhabditis elegans; conditions: for average increase in median lifespan: 8 independent replicates, 200 μM Lip-1 or 250 μM SIH; for effect on survival curve: in vivo
Procedure: Lifespan was measured using established protocols. SIH was dissolved in neat dimethyl sulfoxide (DMSO; Sigma-Aldrich) then added to the molten NGM at 55° C. (to a final concentration of 250 μM SIH in 0.5% v/v DMSO). Lip-1 was dissolved in neat DMSO then added to the molten NGM at 55° C. (to a final concentration of 200 μM Lip-1 in 0.5% v/v DMSO). Media containing equivalent vehicle alone (0.5% v/v DMSO) was used for comparison. Standard overnight culture of the Escherichia coli (E. coli) strain OP50 was used as the food source.
Lifespan data was collected at 25 (±1) ° C. using the temperature sensitive-sterile strain TJ1060 [spe-9(hc88); fer-15(b26)]. A synchronous population was obtained by transferring egg-laying adults to fresh plates at 16° C. for 2-3 hours. The adults were removed and the plates with eggs then transferred to 25° C. to ensure sterility. After 48 hours at 25° C., when worms were at the late L4/young adult stage, 25-35 nematodes were transferred to fresh plates containing either vehicle control, 250 μM SIH, or 200 μM Lip-1. All plates were coded to allowing blinding of the experimenter to the treatment regime during scoring. Nematodes were scored for survival at one to three-day intervals and transferred to freshly prepared plates as needed (2-5 days).
It is well documented that differences are observed between independent measures of lifespan, with micro-environmental factors such as minor temperature fluctuations potentially resulting differences in median and maximum lifespan between replicates. After determining the optimal doses of 250 μM SIH and 200 μM Lip-1, respectively, cohorts of nematodes were compared in 8 independent replicates. As the number of worms measured is known to influence the likelihood of accurately observing differences in lifespan, the starting populations for all treatments within experiments were in excess of 70 individuals.

C. elegans strain TJ1060 [2] = test: Parametric survival models (Weibull frailty), goodness of fit, combining replicates, meta-analysis; set-up: species or system Caenorhabditis elegans
Procedure: Parametric survival models with Weibull baseline hazards and Gamma frailty were fitted to replicate-specific data using the R package flexsurv. A likelihood ratio test was used to compare models that assume simple temporal rescaling to models that allow varying degrees of departure from temporal rescaling. The best model for each replicate was selected using a likelihood ratio test and the goodness of fit (GOF) of the best model is evaluated using a chi-square GOF test. To combine data across different replicates, we performed fixed-effect and random-effect meta-analyses for each parameter in the best model. Briefly, the fixed-effect meta-analysis estimates were derived using Inverse Variance Weighting (IVW) in which the estimates from each replicate were weighted by the inverse of their variance estimates. The meta-analysis estimates were then calculated simply as the weighted average of estimates from all replicates. The fixed-effect meta-analysis assumes that there is insignificant variation between the estimates of the same parameter across different replicates. The random-effect meta-analysis also derives the estimates by assigning weights to estimates from each replicate, but in this case the weights take into account the variation of estimates across replicates. […]

[3] = 250 μM SIH, days of adulthood at 25 (±1)° C, single replicate experiments 1-8
[4] = 200 μM Lip-1, days of adulthood at 25 (±1)° C, single replicate experiments 1-8

Row | Compound | % median Ý, Mean of 8 replicates (C. elegans strain TJ1060 [1]; 250 μM SIH) | max lifespan, Mean of 8 replicates (C. elegans strain TJ1060 [1]; 250 μM SIH, 25 (±1)° C) [days] | median lifespan, Mean of 8 replicates (C. elegans strain TJ1060 [1]; 250 μM SIH, 25 (±1)° C) [days] | max lifespan (C. elegans strain TJ1060 [1]; [3]) | median lifespan (C. elegans strain TJ1060 [1]; [3]) | % median Ý (median lifespan vs control) (C. elegans strain TJ1060 [1]; 250 μM SIH, single replicate experiments 1-8) | average increase in median lifespan (C. elegans strain TJ1060 [1]) [%] | effect on survival curve (C. elegans strain TJ1060 [1]) | risk of death (hazard) in early adulthood (C. elegans strain TJ1060 [2]; compared to control populations, rose precipitously in late life) | % median Ý, Mean of 8 replicates (C. elegans strain TJ1060 [1]; 200 μM Lip-1) | max. lifespan, Mean of 8 replicates (C. elegans strain TJ1060 [1]; 200 μM Lip-1, 25 (±1)° C) [days] | median lifespan, Mean of 8 replicates (C. elegans strain TJ1060 [1]; 200 μM Lip-1, 25 (±1)° C) [days] | max. lifespan (C. elegans strain TJ1060 [1]; [4]) | median lifespan (C. elegans strain TJ1060 [1]; [4]) | % median Ý (median lifespan vs control) (C. elegans strain TJ1060 [1]; 200 μM Lip-1, single replicate experiments 1-8) | rate of mortality in the post-reproductive period (late-life) (C. elegans strain TJ1060 [2])
1 | O=C(N/N=C/c1ccccc1O)c1ccncc1 [SIH, Salicylaldehyde isonicotinoyl hydrazone] | +101% | 22 | 16 | 19 days (2×) and 23 days and 20 days and 18 days and 24 days and 29 days and 26 days | 14* days (4×) and 16* days (2×) and 17* days and 20* days | 100% and 75% (2×) and 78% and 129% and 56% and 143% and 150% | ~100 | extended mid-life with a squaring of the survival curve | greatly reduced |  |  |  |  |  |  | 
2 | Clc1cccc(CNC2=Nc3ccccc3NC23CCNCC3)c1 [Lip-1, N-[(3-chlorophenyl)methyl]-spiro[piperidine-4,2′(1′H)-quinoxalin]-3′-amine] |  |  |  |  |  |  | ~70 | primarily altered late life survival |  | +72% | 25 | 13 | 25 days (2×) and 20 days and 24 days (2×) and 26 days (2×) and 27 days | 13* days and 11† days and 14* days (4×) and 12* days and 15* days | 86% and 38% and 56% (2×) and 100% and 50% and 114% and 75% | markedly reduced
